Experiments:
Format in all cases: cell-based
[1] = system: HTT mRNA alternative junction (AJ); experiment: Splicing RT-qPCR assay, increase of HTT alternative junction (AJ) mRNA; settings: A673 or K562 cells, 24 hours compound treatment, concentration having 50% response in AJ increase
Method in brief: (§1)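 A673 (DMEM, 10% FBS) or K562 (IMDM, 10% FBS) cells exposed 24 h at 37 °C to an 11-point 3-fold series, top dose 10 uM final, DMSO ≤0.25%. Lysates assayed by RT-qPCR for HTT CJ and AJ, normalized to GAPDH, GUSB or PPIA and DMSO control via 2^(−ΔΔCt).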

[2] = system: HTT mRNA canonical junction (CJ); experiment: Splicing RT-qPCR assay, decrease of HTT canonical junction (CJ) mRNA; settings: A673 or K562 cells, 24 hours compound treatment, concentration having 50% response in CJ decrease
Method in brief: as §1

[3] = system: HTT CJ mRNA; experiment: Gene panel canonical junction qPCR assay, HTT; settings: protocol of Example 42, read-out: HTT IC50 (decrease in CJ mRNA levels)
Method in brief: (§2)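 A673 or K562 cells treated 24 h at 37° C with 11-point 3-fold dilutions (top 10 uM, DMSO ≤0.25%). Canonical junction mRNA quantified by RT-qPCR, normalized to GAPDH, GUSB or PPIA and DMSO control (2^(−ΔΔCt)). 4-parameter logistic fit gives IC50 for CJ decrease.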

[4] = system: SMN2 CJ mRNA; experiment: Gene panel canonical junction qPCR assay, SMN2; settings: protocol of Example 42, read-out: SMN2 IC50 (decrease in CJ mRNA levels)
Method in brief: as §2

[5] = system: Target C CJ mRNA; experiment: Gene panel canonical junction qPCR assay, Target C; settings: protocol of Example 42, read-out: Target C IC50 (decrease in CJ mRNA levels)
Method in brief: as §2

Row | IC50 [3] [nM] | IC50 [4] [nM] | IC50 [5] [nM] | Structure (SMILES) | AC50 [1] [nM] | AC50 [2] [nM]
1 | 100 to 1000 | < 100 | 1000 to 10000 | Cc1cn2cc(NC(=O)c3ccc(N4CCN5CCCC5C4)c4cn(C)nc34)cc(F)c2n1 (stereo not drawn) [Compound 250] | 100 to 1000 | 100 to 1000
2 | 100 to 1000 | < 100 | 1000 to 10000 | Cc1cn2cc(NC(=O)c3ccc(N4CCC(N(C)C)CC4)c4cn(C)nc34)cc(C)c2n1 [Compound 251] | 100 to 1000 | 100 to 1000
3 | 100 to 1000 | < 100 | 100 to 1000 | CCNC1CCN(c2ccc(C(=O)Nc3cc(F)c4nc(C)cn4c3)c3nn(C)cc23)CC1 [Compound 252] | 100 to 1000 | 100 to 1000
4 | > 10000 | 1000 to 10000 | > 10000 | Cc1cn2nc(NC(=O)c3ccc(N4CCNCC4)c4nn(C)cc34)nc2c(C)n1 [Compound 253] | > 10000 | > 10000
5 | 1000 to 10000 | < 100 | > 10000 | Cc1cn2cc(NC(=O)c3ccc(C4CCN(C)CC4)c4cc(C)oc34)cc(F)c2n1 [Compound 256, N-[8-fluoro-2-methylimidazo[1,2-a]pyridin-6-yl]-2-methyl-4-(1-methylpiperidin-4-yl)-1-benzofuran-7-carboxamide] | 1000 to 10000 | 1000 to 10000
6 | 1000 to 10000 | < 100 | > 10000 | CCN1CCC(c2ccc(C(=O)Nc3cc(F)c4nc(C)cn4c3)c3oc(C)cc23)CC1 [Compound 257, 4-(1-ethylpiperidin-4-yl)-N-[8-fluoro-2-methylimidazo[1,2-a]pyridin-6-yl]-2-methyl-1-benzofuran-7-carboxamide] | 1000 to 10000 | 1000 to 10000
7 | 1000 to 10000 | < 100 | 1000 to 10000 | Cc1cn2cc(NC(=O)c3ccc(N4CCC(N(C)C)C4)c4cn(C)nc34)cc(F)c2n1 (stereo not drawn) [Compound 258] | 100 to 1000 | 1000 to 10000
8 | 1000 to 10000 | < 100 | 1000 to 10000 | Cc1cn2cc(NC(=O)c3ccc(N4CCC(NC(C)(C)C)CC4)c4cn(C)nc34)cc(F)c2n1 [Compound 259] | 1000 to 10000 | 1000 to 10000
9 | 1000 to 10000 | 1000 to 10000 | > 10000 | Cc1cc2c(N3CCNCC3)ccc(C(=O)Nc3ccc4cn(C)nc4c3)c2o1 [Compound 261, 2-methyl-N-(2-methylindazol-6-yl)-4-(piperazin-1-yl)-1-benzofuran-7-carboxamide] | 1000 to 10000 | 1000 to 10000
10 | > 10000 | < 100 | > 10000 | Cc1cn2cc(NC(=O)c3ccc(N4CCNCC4)c4cc(C)oc34)c(C)cc2n1 [Compound 262] | > 10000 | > 10000
11 | 1000 to 10000 | < 100 | 1000 to 10000 | Cc1cn2cc(NC(=O)c3ccc(N4CCNCC4)c4cc(C)oc34)ncc2n1 [Compound 263] | 1000 to 10000 | 1000 to 10000
12 | > 10000 | > 10000 | > 10000 | Cc1cn2nc(NC(=O)c3ccc(N4CCNCC4)c4cc(C)oc34)nc2c(C)n1 [Compound 264] | > 10000 | > 10000
13 | > 10000 | 1000 to 10000 | > 10000 | Cc1cn2nc(NC(=O)c3ccc(N4CCNCC4)c4cc(C)oc34)cc2c(C)n1 [Compound 265] | > 10000 | > 10000
14 | 1000 to 10000 | < 100 | > 10000 | Cc1cn2cc(NC(=O)c3ccc(N4CCNCC4)c4cc(C)oc34)cc(Cl)c2n1 [Compound 266] | 1000 to 10000 | 1000 to 10000
15 | > 10000 | < 100 | > 10000 | Cc1cn2cc(NC(=O)c3ccc(N4CCNCC4)c4cc(C)oc34)cc(C)c2n1 [Compound 267] | 1000 to 10000 | > 10000
16 | 100 to 1000 | < 100 | 1000 to 10000 | Cc1cn2cc(NC(=O)c3ccc(N4CCNCC4)c4cn(C)nc34)cc(Cl)c2n1 [Compound 269] | 100 to 1000 | 100 to 1000
17 | > 10000 | 100 to 1000 | > 10000 | Cc1cn2cc(NC(=O)c3ccc(C4CC(C)(C)NC(C)(C)C4)c4cc(C)oc34)cc(F)c2n1 [Compound 271, N-[8-fluoro-2-methylimidazo[1,2-a]pyridin-6-yl]-2-methyl-4-(2,2,6,6-tetramethylpiperidin-4-yl)-1-benzofuran-7-carboxamide] | > 10000 | > 10000
18 | 100 to 1000 | < 100 | 100 to 1000 | Cc1cn2cc(NC(=O)c3ccc(N4CCC(N5CCCC5)C4)c4cn(C)nc34)cc(F)c2n1 (stereo not drawn) [Compound 272] | 100 to 1000 | 100 to 1000
19 | > 10000 | < 100 | > 10000 | Cc1cn2cc(NC(=O)c3ccc(N4CCNCC4)c4cn(C)nc34)nc2c(C)n1 [Compound 273] | > 10000 | > 10000
20 | 1000 to 10000 | < 100 | > 10000 | Cc1cn2cc(NC(=O)c3ccc(N4CC(C)(C)NC(C)(C)C4)c4cn(C)nc34)cc(F)c2n1 [Compound 274] | > 10000 | 1000 to 10000
21 | 1000 to 10000 | < 100 | > 10000 | Cc1cn2cc(NC(=O)c3ccc(N4CCNCC4)c4cn(C)nc34)cc(C(F)(F)F)c2n1 [Compound 275] | 1000 to 10000 | 1000 to 10000
22 | 100 to 1000 | < 100 | 1000 to 10000 | Cc1cn2cc(NC(=O)c3ccc(N4CCNC(C)C4)c4cn(C)nc34)cc(Cl)c2n1 (stereo not drawn) [Compound 277, N-{8-chloro-2-methylimidazo[1,2-a]pyridine-6-yl}-2-methyl-4-(3-methylpiperazin-1-yl)indazole-7-carboxamide] | 100 to 1000 | 100 to 1000
23 | 1000 to 10000 | < 100 | 1000 to 10000 | Cc1cn2cc(NC(=O)c3ccc(N4CCC(N(C)C)C4)c4cn(C)nc34)cc(Cl)c2n1 (stereo not drawn) [Compound 278, N-{8-chloro-2-methylimidazo[1,2-a]pyridin-6-yl}-4-[3-(dimethylamino)pyrrolidin-1-yl]-2-methylindazole-7-carboxamide] | 1000 to 10000 | 1000 to 10000
24 | 1000 to 10000 | 1000 to 10000 | > 10000 | Cc1cn2cc(-c3ccc(C(=O)NC4CCNCC4)c4nn(C)cc34)cc(F)c2n1 [Compound 280, 4-{8-fluoro-2-methylimidazo[1,2-a]pyridin-6-yl}-2-methyl-N-(piperidin-4-yl)indazole-7-carboxamide] | 1000 to 10000 | 1000 to 10000
25 | 1000 to 10000 | 100 to 1000 | 1000 to 10000 | Cc1cn2nc(-c3ccc(C(=O)NC4CCNCC4)c4nn(C)cc34)cc(C)c2n1 [Compound 281, 4-{2,8-dimethylimidazo[1,2-b]pyridazin-6-yl}-2-methyl-N-(piperidin-4-yl)indazole-7-carboxamide] | 1000 to 10000 | 1000 to 10000

Row | Structure (SMILES) | IC50 [3] [nM] | IC50 [4] [nM] | IC50 [5] [nM] | AC50 [1] [nM] | AC50 [2] [nM]
26 | Cc1cn2cc(NC(=O)c3ccc(N4C[C@H]5CC[C@@H](C4)N5)c4cc(C)oc34)cc(F)c2n1 [Compound 255] | 1000 to 10000 | < 100 | > 10000 | 1000 to 10000 | 1000 to 10000
27 | Cc1cn2cc(NC(=O)c3ccc(N4C[C@H]5CC[C@@H](C4)N5)c4cn(C)nc34)cc(F)c2n1 [Compound 260] | 100 to 1000 | < 100 | > 10000 | 100 to 1000 | 100 to 1000
28 | Cc1cc2c(N3CCNCC3)ccc(C(=O)Nc3cn[nH]c3)c2o1 [Compound 268] | > 10000 | > 10000 | > 10000 | > 10000 | > 10000
29 | Cn1cc2c(N3CCNCC3)ccc(C(=O)Nc3cn[nH]c3)c2n1 [Compound 270] | > 10000 | > 10000 | > 10000 | > 10000 | > 10000
30 | Cc1cn2cc(NC(=O)c3ccc(N4C[C@H]5CC[C@@H](C4)N5)c4cn(C)nc34)cc(Cl)c2n1 [Compound 279, N-{8-chloro-2-methylimidazo[1,2-a]pyridin-6-yl}-4-[(1R,5S)-3,8-diazabicyclo[3.2.1]octan-3-yl]-2-methylindazole-7-carboxamide] | 1000 to 10000 | < 100 | > 10000 | 1000 to 10000 | 1000 to 10000

Source: patent publication US20230365566A1, “HETEROCYCLIC AMIDES AND THEIR USE FOR MODULATING SPLICING” (REMIX THERAPEUTICS INC., priority 2020, published 2023)
